From patent US4489096A, “Quinone compounds, their production and use” (Takeda Chemical Industries, Ltd., priority 1982, dated 1984) come the findings set out here.

The test system of test [1] is SRS-A generation and release. Description: Inhibitory effect on generation and release of SRS-A (sensitized guinea pig lung fragments, antigen egg white albumin). The class given is cell-based, guinea pigs (Hartley strain). As to conditions: Cavia porcellus; 10^-6 M test compound; number of experiments 3; lung fragments from sensitized guinea pigs. Here is the method: The compounds obtained in accordance with the invention were assayed for the inhibitory effect on the generation of SRS-A by the method of Orange and Moore [J. Immunol., vol. 116, page 392 (1976)]. Thus, the test compound and antigen (egg white albumin) were simultaneously added to the lung fragments from guinea pigs (Hartley strain, male and female, weighing 300-350 g) sensitized with egg white albumin as the antigen. The quantity of SRS-A generated and released on that occasion was determined by the method of Brocklehurst [J. Physiol., vol. 151, pages 416-435 (1960)].

Test [2] has as its system 5-lipoxygenase products (5-HETE) in RBL-1 cells. Kind of test: Inhibition of 5-lipoxygenase products in RBL-1 cells (5-HETE production, HPLC). The class given is cell-based. The note with it: Rattus norvegicus, 20 min, arachidonic acid + A-23187, 37° C., read-out: Percent inhibition of generation and release of 5-HETE; for inhibition at 10 µM: 10^-5 M test compound; for inhibition at 1 µM: 10^-6 M test compound. Here is the method: RBL-1 cells (rat basophilic leukemia cells) (10^7 cells) were suspended in 0.5 ml of MCM (mast cell medium), the test solution (composed of 0.5 ml MCM, 50 μg arachidonic acid, 10 μg A-23187 and 10^-6 M or 10^-5 M quinone compound) was added, and the mixture was incubated at 37° C. for 20 minutes. Thereafter, 4 ml of ethanol and 1,4-dimethoxy-2-methyl-3-(3-methoxypropyl)naphthalene (internal standard) were added, and the mixture was shaken well, then allowed to stand at room temperature for 10 minutes, and centrifuged at 2,000 revolutions per minute for 10 minutes. The supernatant was collected and concentrated to about 200 μl under reduced pressure. A mixed solvent for high performance liquid chromatography [CH3 CN (1500)-CH3 OH (500)-water (1100)-acetic acid (2), adjusted to pH 5.6 with aqueous ammonia] was added to the concentrate to make up to 1 ml. A 200-μl portion of this solution was subjected to high performance liquid chromatography for assaying 5-HETE (5-hydroxyeicosatetraenoic acid).
The percentage of inhibition of 5-HETE production (IE) is expressed by (1-b/a)×100, where a is the peak height or area corrected relative to the internal standard peak for the quinone compound-free (control) test solution and b is the peak height or area corrected in relation to the internal standard peak for the quinone compound-containing test solution.

`COC1=C(OC)C(=O)C(CCCCC#CCCCC#CC(=O)O)=C(C)C1=O` [Ia-4]: the inhibition at 1 µM in test [1] amounted to 61 ± 8%. For the same compound, in test [2], the inhibition at 10 µM was found to be 85.4% and the inhibition at 1 µM amounted to 70.6%.

Regarding `CCCCCC#CCC#CCC#CCC#CCCCC(=O)O` [ETYA, 5,8,11,14eicosatetraynoic acid, reference compound], in test [2], the inhibition at 10 µM stood at 39.4% and the inhibition at 1 µM is 35.9%.

Consider `CC1=C(C)C(=O)C(CCCCC#CCCCC#CC(=O)O)=C(C)C1=O` [Ia-3, 2,3,5-trimethyl-6-(11-carboxyundeca-5,10-diynyl)-1,4-benzoquinone], for which the inhibition at 1 µM in test [1] came to 58 ± 6%. In test [2], the inhibition at 10 µM came to 86.7% and the inhibition at 1 µM was determined as 75.3%.

On to `CC1=C(C)C(=O)C(CCCCC#CCCCC#CC=O)=C(C)C1=O` [Ia-1], for which, in test [1], the inhibition at 1 µM came to 59 ± 15%. In addition, in test [2], the inhibition at 10 µM turned out to be 83.5% and the inhibition at 1 µM stood at 71.6%.

As for `COC1=C(OC)C(=O)C(CCCCC#CCCCC#CC=O)=C(C)C1=O` [Ia-2], in test [1], the inhibition at 1 µM amounted to 66 ± 6%. Besides, in test [2], the inhibition at 10 µM was 84.3% and the inhibition at 1 µM turned out to be 72.3%.
